Read-outs that look alike come from different tables or passages of the source.
Legend:
[1] = test system: Ab2, monoclonal antibody receptor cross reactive to f-PSA and PSA-ACT; format: binding
[2] = test system: monoclonal antibodies for PSA (Ab1); format: binding
[3] = format: binding; details: BT 5 ng/ml; PSA 100 ng/ml; BSA 10 microgram/ml; phosphate buffer pH 6.7
[4] = format: binding; details: CT 5 ng/ml; PSA 100 ng/ml; BSA 10 microgram/ml; phosphate buffer pH 6.7
[5] = f-PSA 1700 pg/ml, p-type silicon nanowire

Row | Substance | Conductance Change NW2-Ab2 ([1]; PSA-ACT 0.32 pg/ml) [nS] | Conductance Change NW2-Ab2 ([1]; PSA-ACT 3.2 pg/ml) [nS] | Conductance Change NW2-Ab2 ([1]; PSA-ACT 320 pg/ml) [nS] | Conductance Change NW2-Ab2 ([1]; PSA-ACT 3200 pg/ml) [nS] | Conductance Change NW1-Ab1 ([2]; f-PSA 0.085 pg/ml) [nS] | Conductance Change NW1-Ab1 ([2]; f-PSA 0.85 pg/ml) [nS] | Conductance Change NW1-Ab1 ([2]; f-PSA 8.5 pg/ml) [nS] | Conductance Change NW1-Ab1 ([2]; f-PSA 850 pg/ml) [nS] | Conductance Change NW1-Ab1 [2, 5] [nS] | Conductance Change NW2-Ab2 ([1]; f-PSA 0.085 pg/ml) [nS] | Conductance Change NW2-Ab2 ([1]; f-PSA 0.85 pg/ml) [nS] | Conductance Change NW2-Ab2 ([1]; f-PSA 8.5 pg/ml) [nS] | Conductance Change NW2-Ab2 ([1]; f-PSA 850 pg/ml) [nS] | Conductance Change NW2-Ab2 [1, 5] [nS] | conductance response to injection [3] | conductance response to injection [4]
1 | PSA-ACT: PSA-alpha-1-antichymotrypsin complex, cancer marker | 19 | 67 | 124 | 143 |  |  |  |  |  |  |  |  |  |  |  | 
2 | f-PSA: free prostate specific antigen, cancer marker protein, purchased from Calbiochem |  |  |  |  | 15 | 45 | 98 | 185 | 192 | 10 | 50 | 81 | 132 | 154 | no response was observed | no response was observed

From patent publication US8232584B2 (priority 2005, dated 2012)
